Drawing on ChEMBL document CHEMBL1141920, “Substituted aminobenzimidazole pyrimidines as cyclin-dependent kinase inhibitors” (Bioorg Med Chem Lett, 2005), this text covers IC50 for 39 compounds.

In assay [1] the target is Cyclin-dependent kinase 1 (Homo sapiens, UniProt P06493). Briefly: Inhibitory concentration against Cyclin dependent kinase 1.
Assay [2] in a line: Inhibitory concentration against Platelet-derived growth factor receptor.
Assay [3] can be described thus: Inhibitory concentration against Casein kinase 2.
Assay [4] in a line: Inhibitory concentration against Mitogen-activated protein kinase p38. More on the design: species or system Homo sapiens.
In assay [5] the target is Mitogen-activated protein kinase 3 (Homo sapiens, UniProt P27361). As to the kind of experiment: Inhibitory concentration against Extracellular signal-regulated kinase 1.
Mitogen-activated protein kinase 3, sequence (P27361 whole entry): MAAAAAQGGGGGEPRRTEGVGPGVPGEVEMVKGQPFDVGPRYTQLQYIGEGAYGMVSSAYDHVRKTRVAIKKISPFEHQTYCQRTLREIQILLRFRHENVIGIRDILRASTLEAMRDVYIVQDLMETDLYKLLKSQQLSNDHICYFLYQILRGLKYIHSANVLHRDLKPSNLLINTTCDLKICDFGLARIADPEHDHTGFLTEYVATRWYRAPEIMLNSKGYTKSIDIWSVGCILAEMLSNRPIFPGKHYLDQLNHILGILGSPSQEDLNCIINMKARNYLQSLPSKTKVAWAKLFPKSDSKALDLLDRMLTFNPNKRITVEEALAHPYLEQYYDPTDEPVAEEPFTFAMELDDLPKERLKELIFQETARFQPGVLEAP
Assay [6] is described as follows: Inhibitory concentration against Cyclin dependent kinase 2. More on the design: species or system Homo sapiens.
For assay [7], the target named is Cyclin-dependent kinase 4 (Homo sapiens, UniProt P11802). As to the kind of experiment: Inhibitory concentration against Cyclin dependent kinase 4.
Cyclin-dependent kinase 4, sequence (P11802 whole entry): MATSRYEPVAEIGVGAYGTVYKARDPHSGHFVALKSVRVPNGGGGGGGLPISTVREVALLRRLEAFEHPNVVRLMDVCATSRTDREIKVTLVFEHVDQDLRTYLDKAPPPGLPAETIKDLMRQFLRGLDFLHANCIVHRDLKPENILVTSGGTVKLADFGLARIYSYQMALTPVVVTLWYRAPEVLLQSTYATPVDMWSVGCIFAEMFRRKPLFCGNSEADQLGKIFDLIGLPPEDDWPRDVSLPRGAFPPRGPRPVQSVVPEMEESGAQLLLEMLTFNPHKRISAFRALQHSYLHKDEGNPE

As a reminder, the IC50 is the concentration that gives 50% inhibition.

“And” between values parts separate entries of the source, which are not always exact repeats. Identical values can stand only once.

Cyclin-dependent kinase 1, sequence (P06493 whole entry): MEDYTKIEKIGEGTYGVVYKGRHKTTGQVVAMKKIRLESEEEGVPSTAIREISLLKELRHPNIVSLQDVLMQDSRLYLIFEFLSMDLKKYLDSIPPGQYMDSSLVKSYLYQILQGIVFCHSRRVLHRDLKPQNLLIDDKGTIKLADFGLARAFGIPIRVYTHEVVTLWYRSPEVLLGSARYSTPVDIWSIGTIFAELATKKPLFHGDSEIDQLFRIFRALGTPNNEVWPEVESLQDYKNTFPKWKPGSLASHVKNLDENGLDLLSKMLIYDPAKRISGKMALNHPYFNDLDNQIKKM

As to `CC(C)Oc1nc(Nc2ccc3nc[nH]c3c2)ncc1C(F)(F)F`, the concentration for half-maximal inhibition (IC50) in assay [1] amounted to 25 nM.

On to `FC(F)(F)c1ccc(Oc2nc(Nc3ccc4[nH]cnc4c3)ncc2C(F)(F)F)cc1`, for which the IC50 in assay [1] was greater than 1000 nM.

Compound `CC(C)COc1nc(Nc2ccc3[nH]cnc3c2)ncc1C(F)(F)F` showed an IC50 in assay [1] of 2 nM.

`Clc1cccc(CNc2nc(Nc3ccc4[nH]cnc4c3)ncc2Br)c1Cl` registered an IC50 in assay [1] of 126 nM.

For `c1cc(Nc2ccc3[nH]cnc3c2)nc(Nc2ccc3[nH]cnc3c2)n1`, the half-inhibitory concentration (IC50) in assay [1] was greater than 1000 nM.

On to `FC(F)(F)c1cnc(Nc2ccc3nc[nH]c3c2)nc1Nc1ccc(Cl)cc1`, for which, in assay [1], inhibition was half-maximal at 4 nM (IC50).

Consider `FC(F)(F)c1cnc(Nc2ccc3[nH]cnc3c2)nc1Nc1ccc2[nH]cnc2c1`, for which the IC50 in assay [1] turned out to be 10 nM.

As to `FC(F)(F)c1cnc(Nc2ccc3[nH]cnc3c2)nc1OC1CCCCC1`, the IC50 in assay [1] was determined as 43 nM.

`FC(F)(F)c1cnc(Nc2ccc3nc[nH]c3c2)nc1Nc1cccc(Cl)c1` showed an IC50 in assay [1] of 3 nM. This IC50 is about 14-fold lower than that of the compound before.

In assay [1], `FC(F)(F)c1cnc(Nc2ccccc2Cl)nc1Nc1ccc2nc[nH]c2c1` gave a concentration for half-maximal inhibition (IC50) greater than 1000 nM.

`FC(F)(F)c1cnc(Nc2ccc3nc[nH]c3c2)nc1Oc1ccc(Br)cc1` registered an IC50 in assay [1] of 562 nM.

The compound `Fc1cnc(Nc2ccc3nc[nH]c3c2)nc1Nc1ccc2nc[nH]c2c1` registered an IC50 in assay [1] of 430 nM.

In assay [1], `Brc1cnc(Nc2ccc3nc[nH]c3c2)nc1Nc1ccc(Oc2cccnc2)cc1` gave a half-maximal inhibitory concentration (IC50) of 34 nM.

Regarding `Cc1ccccc1Sc1nc(Nc2ccc3[nH]cnc3c2)ncc1C(F)(F)F`, the IC50 in assay [1] was 135 nM.

Turning to `CCOc1nc(Nc2ccc3nc[nH]c3c2)ncc1C(F)(F)F`, the IC50 in assay [1] came out at 77 nM.

`NS(=O)(=O)c1ccc(Nc2ncc(C(F)(F)F)c(Nc3ccc4nc[nH]c4c3)n2)cc1`: it took 0.1 nM to reach half-maximal inhibition in assay [1] (IC50).

For the compound `FC(F)(F)c1cnc(Nc2ccc3[nH]cnc3c2)nc1Nc1ccccc1Cl`, the half-inhibitory concentration (IC50) in assay [2] was 290 nM; in assay [3] it was 510 nM; in assay [4], greater than 1000 nM; in assay [5], greater than 1000 nM.

`c1cc(Nc2ccc3[nH]ccc3c2)nc(Nc2ccc3[nH]ccc3c2)n1` came in with a 50% inhibitory concentration (IC50) in assay [1] greater than 1000 nM.

As for `COc1cccc(Sc2nc(Nc3ccc4nc[nH]c4c3)ncc2C(F)(F)F)c1`, in assay [1], the IC50 is greater than 1000 nM.

`Fc1ccc(Nc2nc(Nc3ccc4[nH]cnc4c3)ncc2Br)cc1` gave an IC50 in assay [1] of 4 nM.

`FC(F)(F)c1cnc(Nc2ccc3nc[nH]c3c2)nc1Oc1ccc(Cl)cc1` displayed an IC50 in assay [1] of 252 nM. This IC50 lies about 63-fold higher than the previous one.

`CN(c1cccc(Cl)c1)c1ncc(C(F)(F)F)c(Nc2ccc3nc[nH]c3c2)n1` registered an IC50 in assay [1] greater than 1000 nM.

In assay [1], `Brc1cnc(Nc2ccc(Oc3cccnc3)cc2)nc1Nc1ccc2nc[nH]c2c1` registered an IC50 of 248 nM.

For the compound `Brc1cnc(Nc2ccc3nc[nH]c3c2)nc1NC1CCCc2ccccc21` (centres undefined), in assay [1], the IC50 was 392 nM.

For the compound `FC(F)(F)c1ccc(Nc2ncc(C(F)(F)F)c(Nc3ccc4nc[nH]c4c3)n2)cc1`, the half-inhibitory concentration (IC50) in assay [1] turned out to be 15 nM.

As for `FC(F)(F)c1cnc(Nc2ccc(Br)cc2)nc1Nc1ccc2[nH]cnc2c1`, the IC50 is 73 nM in assay [6]; 190 nM in assay [2]; 91 nM in assay [3]; greater than 1000 nM in assay [4]; 750 nM in assay [5]; 11 nM in assay [1]. For the same compound, the IC50 in assay [7] was 260 nM and 1200 nM.

With `Brc1cnc(Nc2ccc3[nH]ccc3c2)nc1Nc1ccc2[nH]ccc2c1`, the half-inhibitory concentration (IC50) in assay [1] was greater than 1000 nM.

As for `Fc1cnc(Nc2ccc3[nH]ccc3c2)nc1Nc1ccc2[nH]ccc2c1`, the half-maximal inhibitory concentration (IC50) in assay [1] is greater than 1000 nM.

`Fc1ccc(Oc2nc(Nc3ccc4[nH]cnc4c3)ncc2C(F)(F)F)cc1` came in with an IC50 in assay [1] of 32 nM. This lies in the double-digit nanomolar range.

`Brc1cnc(Nc2ccc3[nH]cnc3c2)nc1NC1CCc2ccccc21` (centres undefined) yielded an IC50 in assay [1] of 34 nM.

On to `Cc1ccccc1Oc1nc(Nc2ccc3[nH]cnc3c2)ncc1C(F)(F)F`, for which the half-inhibitory concentration (IC50) in assay [1] turned out to be 4 nM.

Take `FC(F)(F)c1cnc(Nc2ccc3[nH]ccc3c2)nc1Nc1ccc2[nH]ccc2c1`: the 50% inhibitory concentration (IC50) in assay [1] was greater than 1000 nM.

`Clc1cccc(Nc2ncc(Br)c(Nc3ccc4nc[nH]c4c3)n2)c1` showed an IC50 in assay [1] of 9 nM.

`COc1cccc(Oc2nc(Nc3ccc4nc[nH]c4c3)ncc2C(F)(F)F)c1` came in with a 50% inhibitory concentration (IC50) in assay [1] of 160 nM. Compared with the last compound, the IC50 is about 18-fold higher.

In the case of `COc1ccc(Nc2nc(Nc3ccc4[nH]cnc4c3)ncc2C(F)(F)F)cc1`, the half-inhibitory concentration (IC50) in assay [6] was 31 nM; in assay [2] it was 33 nM; in assay [3] it was 11 nM; in assay [4], greater than 1000 nM; in assay [5] it was greater than 1000 nM; in assay [1] it was 8 nM. Moreover, in assay [7], the IC50 is 57 nM and 230 nM.

For `Brc1cnc(Nc2ccc3[nH]cnc3c2)nc1Nc1ccc2c(c1)OCO2`, it took 9 nM to reach half-maximal inhibition in assay [1] (IC50).

As to `Brc1cnc(Nc2ccc3nc[nH]c3c2)nc1Nc1ccc2nc[nH]c2c1`, the IC50 in assay [1] is 14 nM.

Consider `FC(F)(F)c1cnc(Nc2cccc(Cl)c2)nc1Nc1ccc2[nH]cnc2c1`, for which the concentration for half-maximal inhibition (IC50) in assay [1] was found to be 22 nM.

`Cc1cccc(Nc2ncc(C(F)(F)F)c(Nc3ccc4nc[nH]c4c3)n2)c1` gave a 50% inhibitory concentration (IC50) in assay [1] of 15 nM.
